Where “and” joins values, the source holds several entries; their conditions need not be identical. Equal values may be shown once. Calls of active or inactive are those of the source. How the calls were made is not given here.
System: rodent lifetime carcinogenesis bioassay, tumor incidence TD50
Test: chronic cancer bioassays in animals – CPDB, compiled studies (AID 1745844)

Compound CC(O)CN(CC(O)CO)N=O (centres undefined) has a TD50 (hamster, strain Syrian Golden, females, by gavage, site: forestomach, lesion: several types, types named in the paper, dosed 41 weeks, study length 75 weeks) of 1.59 mg/kg/day, a TD50 (hamster, strain Syrian Golden, females, by gavage, site: forestomach, lesion: squamous-cell papilloma, dosed 41 weeks, study length 75 weeks) of 1.59 mg/kg/day and a TD50 (hamster, strain Syrian Golden, females, by gavage, site: liver, lesion: cholangioadenoma, dosed 41 weeks, study length 75 weeks) of 32.6 mg/kg/day. The TD50 (rat, strain Fischer 344, females, in drinking water, site: esophagus, lesion: carcinoma, dosed 37 weeks, study length 85 weeks) was 0.117 mg/kg/day, the TD50 (rat, strain Fischer 344, females, in drinking water, site: esophagus, lesion: several types, types named in the paper, dosed 37 weeks, study length 85 weeks) was 0.0535 mg/kg/day and the TD50 (rat, strain Fischer 344, females, in drinking water, site: forestomach, lesion: several types, types named in the paper, dosed 37 weeks, study length 85 weeks) was 0.178 mg/kg/day. It also gave a TD50 (rat, strain Fischer 344, females, in drinking water, site: liver, lesion: hepatocellular carcinoma, dosed 37 weeks, study length 85 weeks) of 2.4 mg/kg/day, a TD50 (rat, strain Fischer 344, females, in drinking water, site: tongue, lesion: several types, types named in the paper, dosed 37 weeks, study length 85 weeks) of 0.0888 mg/kg/day and a TD50 (rat, strain Fischer 344, females, in drinking water, site: tongue, lesion: squamous-cell carcinoma, dosed 37 weeks, study length 85 weeks) of 0.241 mg/kg/day.

With Clc1cccc(-c2cccc(Cl)c2)c1 the TD50 (rat, strain Wistar, males, in feed, site: liver, lesion: hepatocellular carcinoma, dosed 116 weeks, study length 116 weeks) was 157 mg/kg/day.

Work on CCN(N)C=O yielded a TD50 (mouse, strain Swiss albino, females, in drinking water, site: blood vessels, lesion: several types, types named in the paper, dosed 61 weeks, study length 61 weeks) of 2.49 mg/kg/day, a TD50 (mouse, strain Swiss albino, females, in drinking water, site: lung, lesion: several types, types named in the paper, dosed 61 weeks, study length 61 weeks) of 2.52 mg/kg/day and a TD50 (mouse, strain Swiss albino, males, in drinking water, site: blood vessels, lesion: several types, types named in the paper, dosed 60 weeks, study length 60 weeks) of 3.55 mg/kg/day. The TD50 (mouse, strain Swiss albino, males, in drinking water, site: gall bladder, lesion: several types, types named in the paper, dosed 60 weeks, study length 60 weeks) was 47.4 mg/kg/day, the TD50 (mouse, strain Swiss albino, males, in drinking water, site: liver, lesion: several types, types named in the paper, dosed 60 weeks, study length 60 weeks) was 17.7 mg/kg/day and the TD50 (mouse, strain Swiss albino, males, in drinking water, site: lung, lesion: several types, types named in the paper, dosed 60 weeks, study length 60 weeks) was 3.19 mg/kg/day. It also gave a TD50 (mouse, strain Swiss albino, males, in drinking water, site: preputial gland, lesion: several types, types named in the paper, dosed 60 weeks, study length 60 weeks) of 50.8 mg/kg/day.

With O=C1CCC(=O)O1 the carcinogen call (mouse, strain B6C3F1, females, by gavage, site: any site (literature study), lesion: several types, types named in the paper, dosed 103 weeks, study length 104 weeks) was “negative (inactive)”, the TD50 (mouse, strain B6C3F1, females, by gavage, site: lung, lesion: alveolar/bronchiolar adenoma + alveolar/bronchiolar carcinoma, dosed 103 weeks, study length 104 weeks) was 4690 mg/kg/day and the carcinogen call (mouse, strain B6C3F1, males, by gavage, site: any site (literature study), lesion: several types, types named in the paper, dosed 103 weeks, study length 104 weeks) was “negative (inactive)”. For the same compound, the carcinogen call (rat, strain Fischer 344, females, by gavage, site: any site (literature study), lesion: several types, types named in the paper, dosed 103 weeks, study length 105 weeks) was “negative (inactive)”, the TD50 (rat, strain Fischer 344, females, by gavage, site: liver, lesion: hepatocellular adenoma + hepatocellular carcinoma + neoplastic nodule, dosed 103 weeks, study length 105 weeks) was 1300 mg/kg/day and the carcinogen call (rat, strain Fischer 344, males, by gavage, site: any site (literature study), lesion: several types, types named in the paper, dosed 103 weeks, study length 105 weeks) was “negative (inactive)”.

For CC(CN1CC(=O)NC(=O)C1)N1CC(=O)NC(=O)C1 (centres undefined), the TD50 (mouse, strain B6C3F1, females, i.p., site: all sites, lesion: leukemia + lymphoma, histiocytic type + lymphoma, dosed 52 weeks, study length 86 weeks) was 23.7 mg/kg/day, the TD50 (mouse, strain B6C3F1, females, i.p., site: all sites, lesion: leukemia + lymphoma, dosed 52 weeks, study length 86 weeks) was 23.7 mg/kg/day and 25.9 mg/kg/day and the TD50 (mouse, strain B6C3F1, females, i.p., site: all sites, lesion: lymphoma, histiocytic type, dosed 52 weeks, study length 86 weeks) was 53.7 mg/kg/day. The TD50 (mouse, strain B6C3F1, females, i.p., site: any site (literature study), lesion: several types, types named in the paper, dosed 52 weeks, study length 86 weeks) was 16.8 mg/kg/day, the TD50 (mouse, strain B6C3F1, males, i.p., site: any site (literature study), lesion: several types, types named in the paper, dosed 52 weeks, study length 86 weeks) was 262 mg/kg/day (inactive) and the TD50 (mouse, strain B6C3F1, males, i.p., site: lung, lesion: alveolar/bronchiolar adenoma + alveolar/bronchiolar carcinoma, dosed 52 weeks, study length 86 weeks) was 212 mg/kg/day. For the same compound, the TD50 (rat, strain Sprague-Dawley, females, i.p., site: any site (literature study), lesion: several types, types named in the paper, dosed 52 weeks, study length 81 weeks) was 6.48 mg/kg/day, the TD50 (rat, strain Sprague-Dawley, females, i.p., site: uterus, lesion: adenocarcinoma, NOS, dosed 52 weeks, study length 79 weeks) was 10.7 mg/kg/day and the TD50 (rat, strain Sprague-Dawley, females, i.p., site: uterus, lesion: adenocarcinoma, NOS, dosed 52 weeks, study length 81 weeks) was 11.3 mg/kg/day. For the same compound, the TD50 (rat, strain Sprague-Dawley, males, i.p., site: any site (literature study), lesion: several types, types named in the paper, dosed 52 weeks, study length 81 weeks) was 9.55 mg/kg/day (inactive) and the TD50 (rat, strain Sprague-Dawley, males, i.p., site: liver, lesion: hepatocellular adenoma + hepatocellular carcinoma + neoplastic nodule, dosed 52 weeks, study length 81 weeks) was 105 mg/kg/day.

In the case of CC(C)=NO, the TD50 (rat, strain MRC-Wistar, females, in drinking water, site: any site (literature study), lesion: several types, types named in the paper, dosed 78 weeks, study length 130 weeks) is reported as 91.5 mg/kg/day, the TD50 (rat, strain MRC-Wistar, females, in drinking water, site: liver, lesion: hemangioma, dosed 78 weeks, study length 130 weeks) is reported as 408 mg/kg/day (inactive) and the TD50 (rat, strain MRC-Wistar, females, in drinking water, site: liver, lesion: hepatocellular adenoma, dosed 78 weeks, study length 130 weeks) is reported as 127 mg/kg/day (inactive). The TD50 (rat, strain MRC-Wistar, females, in drinking water, site: liver, lesion: several types, types named in the paper, dosed 78 weeks, study length 130 weeks) was 127 mg/kg/day (inactive), the TD50 (rat, strain MRC-Wistar, males, in drinking water, site: any site (literature study), lesion: several types, types named in the paper, dosed 78 weeks, study length 110 weeks) was 12.8 mg/kg/day and the TD50 (rat, strain MRC-Wistar, males, in drinking water, site: liver, lesion: hemangioma, dosed 78 weeks, study length 110 weeks) was 136 mg/kg/day. The TD50 (rat, strain MRC-Wistar, males, in drinking water, site: liver, lesion: hepatocellular adenoma, dosed 78 weeks, study length 110 weeks) was 12.1 mg/kg/day and the TD50 (rat, strain MRC-Wistar, males, in drinking water, site: liver, lesion: several types, types named in the paper, dosed 78 weeks, study length 110 weeks) was 12.1 mg/kg/day (inactive).

Compound ClC#CCl has a TD50 (mouse, strain NMRI, females, inhaled, site: Harderian gland, lesion: cystadenoma, dosed 52 weeks, study length 98 weeks) of 3.02 mg/kg/day, a TD50 (mouse, strain NMRI, females, inhaled, site: Harderian gland, lesion: cystadenoma, dosed 78 weeks, study length 119 weeks) of 0.55 mg/kg/day and a TD50 (mouse, strain NMRI, females, inhaled, site: Harderian gland, lesion: cystadenoma, dosed 78 weeks, study length 129 weeks) of 0.499 mg/kg/day. It also gave a TD50 (mouse, strain NMRI, females, inhaled, site: kidney, lesion: cystadenoma, dosed 52 weeks, study length 98 weeks) of 1.03 mg/kg/day, a TD50 (mouse, strain NMRI, females, inhaled, site: kidney, lesion: cystadenoma, dosed 78 weeks, study length 119 weeks) of 1.08 mg/kg/day and a TD50 (mouse, strain NMRI, females, inhaled, site: kidney, lesion: cystadenoma, dosed 78 weeks, study length 129 weeks) of 7.8 mg/kg/day. For the same compound, the TD50 (mouse, strain NMRI, females, inhaled, site: lung, lesion: adenoma, dosed 78 weeks, study length 119 weeks) was 2.73 mg/kg/day, the carcinogen call (mouse, strain NMRI, males, inhaled, site: Harderian gland, lesion: cystadenoma, dosed 52 weeks, study length 92 weeks) was “positive” and the TD50 (mouse, strain NMRI, males, inhaled, site: Harderian gland, lesion: cystadenoma, dosed 78 weeks, study length 118 weeks) was 0.687 mg/kg/day. For the same compound, the TD50 (mouse, strain NMRI, males, inhaled, site: Harderian gland, lesion: cystadenoma, dosed 78 weeks, study length 127 weeks) was 1.01 mg/kg/day, the TD50 (mouse, strain NMRI, males, inhaled, site: kidney, lesion: cystadenocarcinoma, dosed 52 weeks, study length 92 weeks) was 3.89 mg/kg/day and the TD50 (mouse, strain NMRI, males, inhaled, site: kidney, lesion: cystadenocarcinoma, dosed 78 weeks, study length 118 weeks) was 4.52 mg/kg/day. For the same compound, the TD50 (mouse, strain NMRI, males, inhaled, site: kidney, lesion: cystadenocarcinoma, dosed 78 weeks, study length 127 weeks) was 0.501 mg/kg/day, the TD50 (mouse, strain NMRI, males, inhaled, site: kidney, lesion: cystadenoma, dosed 52 weeks, study length 92 weeks) was 0.486 mg/kg/day and the TD50 (mouse, strain NMRI, males, inhaled, site: kidney, lesion: cystadenoma, dosed 78 weeks, study length 118 weeks) was 0.769 mg/kg/day. The TD50 (mouse, strain NMRI, males, inhaled, site: kidney, lesion: cystadenoma, dosed 78 weeks, study length 127 weeks) was 0.466 mg/kg/day, the TD50 (rat, strain Wistar, females, inhaled, site: all sites, lesion: malignant lymphoma, dosed 78 weeks, study length 150 weeks) was 3.86 mg/kg/day and the TD50 (rat, strain Wistar, females, inhaled, site: kidney, lesion: cystadenoma, dosed 78 weeks, study length 150 weeks) was 11.5 mg/kg/day. The TD50 (rat, strain Wistar, females, inhaled, site: liver, lesion: cholangioma, dosed 78 weeks, study length 150 weeks) was 3.86 mg/kg/day, the TD50 (rat, strain Wistar, females, inhaled, site: liver, lesion: hepatocellular adenoma, dosed 78 weeks, study length 150 weeks) was 17.5 mg/kg/day and the TD50 (rat, strain Wistar, males, inhaled, site: kidney, lesion: cystadenocarcinoma, dosed 78 weeks, study length 157 weeks) was 26.2 mg/kg/day. It also gave a TD50 (rat, strain Wistar, males, inhaled, site: kidney, lesion: cystadenoma, dosed 78 weeks, study length 157 weeks) of 3.34 mg/kg/day, a TD50 (rat, strain Wistar, males, inhaled, site: liver, lesion: cholangioma, dosed 78 weeks, study length 157 weeks) of 3.97 mg/kg/day and a TD50 (rat, strain Wistar, males, inhaled, site: liver, lesion: hepatocellular adenoma, dosed 78 weeks, study length 157 weeks) of 12.9 mg/kg/day.

CC(=O)Nc1nc(NC(C)=O)nc(-c2ccc([N+](=O)[O-])o2)n1 was tested, and the TD50 (rat, strain Sprague-Dawley, females, in feed, site: any site (literature study), lesion: several types, types named in the paper, dosed 46 weeks, study length 66 weeks) was 12.8 mg/kg/day, the TD50 (rat, strain Sprague-Dawley, females, in feed, site: mammary gland, lesion: adenocarcinoma, dosed 46 weeks, study length 66 weeks) was 29 mg/kg/day and the TD50 (rat, strain Sprague-Dawley, females, in feed, site: mammary gland, lesion: several types, types named in the paper, dosed 46 weeks, study length 66 weeks) was 14.1 mg/kg/day.
